In PMC11013252, “Exploration of the Antibacterial and Anti-Inflammatory Activity of a Novel Antimicrobial Peptide Brevinin-1BW” (Molecules, 2024):
Positions of bridges follow the written chain, without caps; N, C: chain ends. Residues, ends and D or L forms follow the SMILES beside them.

Test system: S. aureus mature biofilm
Test: Biofilm clearance, crystal violet
Type: cell-based, Staphylococcus aureus
Conditions: S. aureus 24 h biofilm
Experimental: Biofilm clearance of Brevinin-1BW was determined using a 96-well plate assay by first inoculating 100 µL of S. aureus bacterial suspension (5 × 10^5 CFU/mL) and incubating for 24 h at 37 °C. They were washed three times with sterile PBS. […] After 24 h of incubation, the cells were washed three times with sterile PBS. Methanol was added and fixed for 0.5 h and dried aseptically. A 1% crystal violet solution was added for 0.5 h and washed three times with sterilized deionized water. Absolute ethanol dissolved the biofilm. Absorbance was measured at 600 nm. Experiments were repeated four times independently.

Structure (SMILES): CC[C@H](C)[C@@H]1NC(=O)[C@H](CCCCN)NC(=O)[C@@H](NC(=O)[C@H](Cc2ccccc2)NC(=O)[C@@H](NC(=O)[C@@H](NC(=O)[C@@H]2CCCN2C(=O)[C@H](CC(C)C)NC(=O)[C@H](Cc2ccccc2)NC(=O)[C@H](CO)NC(=O)[C@H](C)NC(=O)[C@H](C)NC(=O)[C@H](CC(C)C)NC(=O)CNC(=O)[C@H](C)NC(=O)[C@H](CC(C)C)NC(=O)[C@H](CC(C)C)NC(=O)[C@@H]2CCCN2C(=O)[C@H](CC(C)C)NC(=O)[C@@H](N)Cc2ccccc2)[C@@H](C)O)[C@@H](C)CC)CSSC[C@@H](C(=O)O)NC(=O)[C@H](CCCCN)NC(=O)[C@H](CCCNC(=N)N)NC(=O)[C@H](CO)NC1=O [Brevinin-1BW] (H-FLPLLAGLAASFLPTIFCKISRKC-OH; disulfide 18-24)
- clearance rate of the mature biofilm (0.5 × MIC): 50.02%
- clearance rate of the mature biofilm (2 × MIC): 60.99%
